PMC11587516 (ACS Chemical Neuroscience, 2024)

What was measured:
[1] = biological target: T1, hBGT1 (Homo sapiens, UniProt P48065); experiment: [3H]GABA uptake assay, CHO cells stably expressing hBGT1; format: cell-based
T1 construct: expressed in transfected cells
T1 sequence (P48065 1-614): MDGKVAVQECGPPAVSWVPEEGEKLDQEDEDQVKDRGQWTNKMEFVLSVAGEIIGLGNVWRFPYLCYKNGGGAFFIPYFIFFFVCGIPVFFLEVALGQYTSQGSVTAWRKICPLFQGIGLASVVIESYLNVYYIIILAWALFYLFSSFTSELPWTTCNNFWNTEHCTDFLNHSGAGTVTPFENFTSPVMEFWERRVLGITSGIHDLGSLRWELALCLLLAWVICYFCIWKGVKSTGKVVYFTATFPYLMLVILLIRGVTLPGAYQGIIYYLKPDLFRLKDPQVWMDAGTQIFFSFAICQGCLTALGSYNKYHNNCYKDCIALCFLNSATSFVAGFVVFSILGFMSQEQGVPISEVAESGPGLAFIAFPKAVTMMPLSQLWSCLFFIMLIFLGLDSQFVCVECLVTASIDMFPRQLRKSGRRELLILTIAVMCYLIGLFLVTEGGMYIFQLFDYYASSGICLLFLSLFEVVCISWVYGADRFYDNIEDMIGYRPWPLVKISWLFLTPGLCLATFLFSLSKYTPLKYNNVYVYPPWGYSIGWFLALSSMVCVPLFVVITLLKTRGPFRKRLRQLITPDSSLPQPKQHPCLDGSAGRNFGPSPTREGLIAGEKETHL
Experimental: All selected compounds were tested for their ability to inhibit human BGT1 (hBGT1) function.
The CHO cells were placed in 96-well plates (approximately 50,000 cells/well) for about 24 h before the experiment. […] After incubation, cells were washed 3 times with 100 μL/well ice-cold assay buffer, 150 μL/well MicroScint20 (PerkinElmer) was subsequently added before the plate was shaken for at least 1 h. The radioactivity of each well of the plate was measured on a TopCount NXT scintillation counter. […] Data presented are the pooled data of at least three independent experiments with three technical replicates if not stated otherwise in figure legends. Concentration–response curves were fitted by nonlinear regression to the sigmoidal concentration–response model with GraphPad Prism v 9.0.

[2] = test system: SH-SY5Y neuroblastoma cells; experiment: SH-SY5Y viability, MTS assay, 72 h; format: cell-based, human; settings: 0.1-100 µM
Description: OC(=O)[C@H]1CNCC[C@@H]1S OC(=O)CCCCCCN1C=CN=C1
OC(=O)C1CCNCC1 N[C@]12C[C@H]1[C@@H](CC2)C(O)=O
OC(=O)C1=CCNCC1 N[C@H]1C[C@@H]1CC(O)=O
O[C@@H]1CNCC[C@H]1C(O)=O N[C@@H]1C[C@@H]1CC(O)=O
OC(=O)CCCC1=NC=CN1 N[C@H]1C[C@H]1CC(O)=O
OC(=O)\C=C\C1=NC=CN1 NC[C@H]1C[C@H]1C(O)=O
OC(=O)\C=C\C1=CNC=N1 NC[C@@H]1C[C@@H]1C(O)=O
OC(=O)\C=C\C1=CN=CN1 NC[C@@H]1C[C@H]1C(O)=O
OC(=O)CCC1=CNC=N1 NC[C@H]1C[C@@H]1C(O)=O
OC(=O)CCC1=CN=CN1 NC1=CC=C(C=N1)C(O)=O
OC(=O)CCN1C=CN=C1 NC1=NC=C(C=N1)C(O)=O
OC(=O)CCCC1=NC=CN1 NC(=N)N1CCC(CC1)C(O)=O
S2. IC50 determination at GAT3 stable GAT3-CHO, compound 9
Figure S1. IC 50 determination for compound 9. Data represent one of three independent experiments, each performed in three technical replicates.
S3. […]
The influence of compound 9 on viability of SH-SY5Y neuroblastoma cells was determined using Aqueous Non-Radioactive Cell Proliferation Assay. […] Upon adding MTS and following 2h incubation, cell viability was calculated and […]
The effect of compound 9 on viability and proliferation of SH-SY5Y was determined with CellTiter 96® Aqueous Non-Radioactive Cell Proliferation Assay (MTS, Promega, Madison, WI, USA). […] Next MTS was added in fresh medium and after 2h of incubation the absorbance was measured at 490 nm using a microplate reader EnSpire (PerkinElmer, Waltham, MA USA). All results were shown as mean ± SD calculated from two independent experiments. […]

SMILES: NC12CC(C(=O)O)(C1)C2 [Compound 9]
- IC50 [1]: 13.9 µM
- inhibition at 100 µM ([1]; CHO, read-out: inhibition of [3H]GABA uptake): 81%
- preference for hBGT1 over hGAT3 ([1]; ratio of IC50 values): over 4 fold
- impact on SH-SY5Y viability [2]: no impact
